Assay results as given in publication PMC12016430 (The Journal of Headache and Pain, 2025).

Tests used:
Experiment in all cases: competitive gel-based ABPP
Type in all cases: cell-based
ABHD6 = molecular target: T1, ABHD6 (Rattus norvegicus, UniProt Q5XI64)
T1 sequence (Q5XI64 1-337): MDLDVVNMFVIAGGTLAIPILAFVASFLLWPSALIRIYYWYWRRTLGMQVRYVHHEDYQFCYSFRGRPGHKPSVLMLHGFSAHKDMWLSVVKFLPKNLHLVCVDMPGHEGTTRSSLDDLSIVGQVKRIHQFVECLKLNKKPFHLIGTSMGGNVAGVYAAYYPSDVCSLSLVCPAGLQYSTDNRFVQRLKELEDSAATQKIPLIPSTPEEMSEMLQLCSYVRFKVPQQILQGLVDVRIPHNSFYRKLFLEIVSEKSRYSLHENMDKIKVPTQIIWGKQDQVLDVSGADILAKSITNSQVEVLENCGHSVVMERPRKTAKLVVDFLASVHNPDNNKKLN

FAAH = molecular target: T2, FAAH (Rattus norvegicus, UniProt P97612)
T2 sequence (P97612 1-579): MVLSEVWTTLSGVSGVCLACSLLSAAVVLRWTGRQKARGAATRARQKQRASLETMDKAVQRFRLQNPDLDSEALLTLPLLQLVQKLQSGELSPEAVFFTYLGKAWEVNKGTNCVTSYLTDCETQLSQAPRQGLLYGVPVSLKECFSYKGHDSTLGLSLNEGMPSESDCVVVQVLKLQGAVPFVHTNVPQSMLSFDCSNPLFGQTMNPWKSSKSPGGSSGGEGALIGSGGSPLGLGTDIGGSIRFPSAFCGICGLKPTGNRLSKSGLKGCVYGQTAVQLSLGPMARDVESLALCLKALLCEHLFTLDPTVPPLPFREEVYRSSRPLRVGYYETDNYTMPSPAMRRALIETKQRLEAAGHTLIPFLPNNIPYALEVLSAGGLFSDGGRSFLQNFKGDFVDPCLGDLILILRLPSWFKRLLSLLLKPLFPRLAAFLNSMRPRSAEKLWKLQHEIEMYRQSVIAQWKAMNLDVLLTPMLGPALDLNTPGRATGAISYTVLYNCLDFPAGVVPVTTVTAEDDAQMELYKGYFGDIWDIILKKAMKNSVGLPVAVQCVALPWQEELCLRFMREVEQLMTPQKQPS

MAGL = molecular target: T3, MAGL (Rattus norvegicus, UniProt Q8R431)
T3 sequence (Q8R431 1-303): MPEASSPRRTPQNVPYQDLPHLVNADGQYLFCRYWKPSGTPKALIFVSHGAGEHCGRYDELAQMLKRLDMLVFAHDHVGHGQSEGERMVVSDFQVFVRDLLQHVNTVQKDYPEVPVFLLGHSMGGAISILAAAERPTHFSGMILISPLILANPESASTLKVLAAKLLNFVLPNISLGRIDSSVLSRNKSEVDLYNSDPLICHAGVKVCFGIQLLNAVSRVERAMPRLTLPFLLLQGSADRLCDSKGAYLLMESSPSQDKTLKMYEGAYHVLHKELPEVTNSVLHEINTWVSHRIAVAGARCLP

% inhibition at 100 nM (ABHD6): 30
% inhibition at 100 nM (FAAH): 79
% inhibition at 100 nM (MAGL): 79
SMILES: O=C(N1CCN(C(c2ccccc2)c2ccccc2)CC1)n1cncn1 [AKU-005]
